Measurements published in ChEMBL document CHEMBL1134487, “Design, synthesis, and biological evaluation of analogues of the antitumor agent, 2-(4-[(7-chloro-2-quinoxalinyl)oxy]phenoxy)propionic acid (XK469)” (2001).
The source made the active and inactive calls. No cut-off for these calls is given here.

Tests used:
[1] = system: Mus musculus; experiment: In vivo activity tested against C3H mice bearing panc-03 murine tumor measured as% treated/control calculated at 477 mg/kg (po); assay type: functional
[2] = system: Mus musculus; experiment: In vivo activity tested against C3H mice bearing panc-03 murine tumor measured as body weight loss at 477 mg/kg (po); assay type: functional
[3] = system: Mus musculus; experiment: In vivo activity tested against C3H mice bearing panc-03 murine tumor measured as log Kill value was based on tumors that grew at 477 mg/kg (po); kill value was NIL; assay type: functional, organism-based; set-up: dose 477 mg/kg
[4] = system: Mus musculus; experiment: In vivo activity tested against C3H mice bearing panc-03 murine tumor; assay type: functional
[5] = system: Mus musculus; experiment: In vivo activity tested against C3H mice bearing panc-03 murine tumor measured as % treated/control calculated at 480 mg/kg (po); assay type: functional
[6] = system: Mus musculus; experiment: In vivo activity tested against C3H mice bearing panc-03 murine tumor measured as body weight loss at 2300 mg/kg (po); assay type: functional
[7] = system: Mus musculus; experiment: In vivo activity tested against C3H mice bearing panc-03 murine tumor measured as body weight loss at 480 mg/kg (po); assay type: functional
[8] = system: Mus musculus; experiment: In vivo activity tested against C3H mice bearing panc-03 murine tumor measured as log Kill value was based on tumors that grew at 2300 mg/kg (po); assay type: functional, organism-based; set-up: dose 2300 mg/kg
[9] = system: Mus musculus; experiment: In vivo activity tested against C3H mice bearing panc-03 murine tumor measured as log Kill value was based on tumors that grew at 480 mg/kg (po); assay type: functional, organism-based; set-up: dose 480 mg/kg
[10] = system: Mus musculus; experiment: In vivo activity tested against C3H mice bearing panc-03 murine tumor measured as % treated/control calculated at 2300 mg/kg (po); assay type: functional
[11] = system: Mus musculus; experiment: In vivo activity tested against C3H mice bearing panc-03 murine tumor measured as cures at 2300 mg/kg (po); 1/5 cures; assay type: functional
[12] = system: Mus musculus; experiment: In vivo activity tested against C3H mice bearing panc-03 murine tumor measured as body weight loss at 1310 mg/kg (po); assay type: functional
[13] = system: Mus musculus; experiment: In vivo activity tested against C3H mice bearing panc-03 murine tumor measured as % treated/control calculated at 1310 mg/kg (po); assay type: functional
[14] = system: Mus musculus; experiment: In vivo activity tested against C3H mice bearing panc-03 murine tumor measured as log Kill value was based on tumors that grew at 1310 mg/kg (po); assay type: functional, organism-based; set-up: dose 1310 mg/kg
[15] = system: Mus musculus; experiment: In vivo activity tested against C3H mice bearing colon adenocarcinoma -38(colon-38) tumor measured as body weight loss at 1590 mg/kg (po); assay type: functional
[16] = system: Mus musculus; experiment: In vivo activity tested against C3H mice bearing colon adenocarcinoma -38(colon-38) tumor measured as % treated/control calculated at 1590 mg/kg (po); assay type: functional
[17] = system: Mus musculus; experiment: In vivo activity tested against C3H mice bearing colon adenocarcinoma -38(colon-38) tumor measured as log Kill value was based on tumors that grew at 1590 mg/kg (po); None; assay type: functional, organism-based; set-up: dose 1590 mg/kg
[18] = system: Mus musculus; experiment: In vivo activity tested against C3H mice bearing colon adenocarcinoma -38(colon-38) tumor measured as activity rating at 1590 mg/kg (po); assay type: functional
[19] = system: Mus musculus; experiment: In vivo activity tested against C3H mice bearing panc-03 murine tumor at a dose of 330mg/kg, measured as % treated/control; assay type: functional
[20] = system: Mus musculus; experiment: In vivo activity tested against C3H mice bearing Mam 17/Adr murine tumor at a dose of 330 mg/kg, measured as activity rating; assay type: functional
[21] = system: Mus musculus; experiment: In vivo activity tested against C3H mice bearing panc-03 murine tumor at a dose of 330mg/kg, measured as activity rating; assay type: functional
[22] = system: Mus musculus; experiment: In vivo activity tested against C3H mice bearing panc-03 murine tumor measured as % treated/control calculated at 287 mg/kg (po); assay type: functional
[23] = system: Mus musculus; experiment: In vivo activity tested against C3H mice bearing panc-03 murine tumor measured as % treated/control calculated at 351 mg/kg (po); assay type: functional
[24] = system: Mus musculus; experiment: In vivo activity tested against C3H mice bearing panc-03 murine tumor measured as body weight loss at 287 mg/kg (po); assay type: functional
[25] = system: Mus musculus; experiment: In vivo activity tested against C3H mice bearing panc-03 murine tumor measured as body weight loss at 351 mg/kg (po); assay type: functional
[26] = system: Mus musculus; experiment: In vivo activity tested against C3H mice bearing panc-03 murine tumor measured as log Kill value was based on tumors that grew at 287 mg/kg (po); assay type: functional, organism-based; set-up: dose 287 mg/kg
[27] = system: Mus musculus; experiment: In vivo activity tested against C3H mice bearing panc-03 murine tumor measured as log Kill value was based on tumors that grew at 351 mg/kg (po); assay type: functional, organism-based; set-up: dose 351 mg/kg
[28] = system: Mus musculus; experiment: In vivo activity tested against C3H mice bearing panc-03 murine tumor measured as % treated/control calculated at 530 mg/kg (po); assay type: functional
[29] = system: Mus musculus; experiment: In vivo activity tested against C3H mice bearing panc-03 murine tumor measured as body weight loss at 530 mg/kg (po); assay type: functional
[30] = system: Mus musculus; experiment: In vivo activity tested against C3H mice bearing panc-03 murine tumor measured as log Kill value was based on tumors that grew at 530 mg/kg (po); assay type: functional, organism-based; set-up: dose 530 mg/kg
[31] = system: Mus musculus; experiment: In vivo activity tested against C3H mice bearing colon adenocarcinoma -38(colon-38) tumor measured as body weight loss at 2686 mg/kg (po); assay type: functional
[32] = system: Mus musculus; experiment: In vivo activity tested against C3H mice bearing colon adenocarcinoma -38(colon-38) tumor measured as % treated/control calculated at 2686 mg/kg (po); assay type: functional
[33] = system: Mus musculus; experiment: In vivo activity tested against C3H mice bearing colon adenocarcinoma -38(colon-38) tumor measured as activity rating at 2686 mg/kg (po); assay type: functional
[34] = system: Mus musculus; experiment: In vivo activity tested against C3H mice bearing colon adenocarcinoma -38(colon-38) tumor measured as log Kill value was based on tumors that grew at 2686 mg/kg (po); assay type: functional, organism-based; set-up: dose 2686 mg/kg
[35] = system: Mus musculus; experiment: In vivo activity tested against C3H mice bearing panc-03 murine tumor measured as % treated/control calculated at 939 mg/kg (po); assay type: functional
[36] = system: Mus musculus; experiment: In vivo activity tested against C3H mice bearing panc-03 murine tumor measured as body weight loss at 939 mg/kg (po); assay type: functional
[37] = system: Mus musculus; experiment: In vivo activity tested against C3H mice bearing panc-03 murine tumor measured as log Kill value was based on tumors that grew at 939 mg/kg (po); assay type: functional, organism-based; set-up: dose 939 mg/kg
[38] = system: Mus musculus; experiment: In vivo activity tested against C3H mice bearing panc-03 murine tumor measured as body weight loss at 1530 mg/kg (po); assay type: functional
[39] = system: Mus musculus; experiment: In vivo activity tested against C3H mice bearing panc-03 murine tumor measured as log Kill value was based on tumors that grew at 1530 mg/kg (po); assay type: functional, organism-based; set-up: dose 1530 mg/kg
[40] = system: Mus musculus; experiment: In vivo activity tested against C3H mice bearing panc-03 murine tumor measured as % treated/control calculated at 1530 mg/kg (po); assay type: functional
[41] = system: Mus musculus; experiment: In vivo activity tested against C3H mice bearing colon adenocarcinoma -38(colon-38) tumor measured as body weight loss at 466 mg/kg (po); assay type: functional
[42] = system: Mus musculus; experiment: In vivo activity tested against C3H mice bearing colon adenocarcinoma -38(colon-38) tumor measured as body weight loss at 753 mg/kg (po); assay type: functional
[43] = system: Mus musculus; experiment: In vivo activity tested against C3H mice bearing colon adenocarcinoma -38(colon-38) tumor measured as % treated/control calculated at 466 mg/kg (po); assay type: functional
[44] = system: Mus musculus; experiment: In vivo activity tested against C3H mice bearing colon adenocarcinoma -38(colon-38) tumor measured as % treated/control calculated at 753 mg/kg (po); assay type: functional
[45] = system: Mus musculus; experiment: In vivo activity tested against C3H mice bearing colon adenocarcinoma -38(colon-38) tumor measured as activity rating at 466 mg/kg (po); assay type: functional
[46] = system: Mus musculus; experiment: In vivo activity tested against C3H mice bearing colon adenocarcinoma -38(colon-38) tumor measured as activity rating at 753 mg/kg (po); assay type: functional
[47] = system: Mus musculus; experiment: In vivo activity tested against C3H mice bearing colon adenocarcinoma -38(colon-38) tumor, measured as cures at 466 mg/kg (po); 3/5 cures; assay type: functional
[48] = system: Mus musculus; experiment: In vivo activity tested against C3H mice bearing colon adenocarcinoma -38(colon-38) tumor, measured as cures at 753 mg/kg (po); 2/5 cures; assay type: functional
[49] = system: Mus musculus; experiment: In vivo activity tested against C3H mice bearing colon adenocarcinoma -38(colon-38) tumor measured as log Kill value was based on tumors that grew at 466 mg/kg (po); assay type: functional, organism-based; set-up: dose 466 mg/kg
[50] = system: Mus musculus; experiment: In vivo activity tested against C3H mice bearing colon adenocarcinoma -38(colon-38) tumor measured as log Kill value was based on tumors that grew at 753 mg/kg (po); assay type: functional, organism-based; set-up: dose 753 mg/kg

CC(Oc1ccc(Oc2cnc3ccc(Cl)cc3n2)cc1)C1N=NN=N1 (stereo not given)
T/C [1]: >100%
Body weight loss [2]: 8.7%
Log kill [3]: kill value was NIL
Activity rating [4]: <0.7

CNC(=O)C(C)Oc1ccc(Oc2cnc3ccc(Cl)cc3n2)cc1 (stereo not given)
T/C [5]: 39%
Body weight loss [6]: -14.5%
Body weight loss [7]: -9.3%
Log kill [8]: 4.2
Log kill [9]: 1.2
T/C [10]: 4%
Cures [11]: 1

CC(Oc1ccc(Oc2cnc3ccc([N+](=O)[O-])cc3n2)cc1)C(=O)O (stereo not given)
Body weight loss [12]: -3.5%
T/C [13]: 52%
Log kill [14]: 0.6

CC(Oc1ccc(Oc2cnc3cc(Cl)ccc3n2)cc1)C(=O)O (stereo not given) [QUIZALOFOP]
Body weight loss [15]: -4%
T/C [16]: >100%
Log kill [17]: inactive
Activity rating [18]: <0.7

CC(Sc1ccc(Oc2cnc3ccc(Cl)cc3n2)cc1)C(=O)O (stereo not given)
T/C [19]: 100%
Activity rating [20]: >2.8
Activity rating [21]: >2.8

CC(Oc1ccc(Oc2cnc3cccc(Cl)c3n2)cc1)C(=O)O (stereo not given)
T/C [22]: 69%
T/C [23]: 74%
Body weight loss [24]: -3.9%
Body weight loss [25]: -4%
Log kill [26]: 0.1
Log kill [27]: 0

CC(Oc1ccc(Oc2cnc3ccc(I)cc3n2)cc1)C(=O)O (stereo not given)
T/C [28]: 15%
Body weight loss [29]: 0%
Log kill [30]: 1.8

CCOC(=O)C(C)Oc1ccc(Oc2cnc3cc(Cl)ccc3n2)cc1 (stereo not given) [QUIZALOFOP ETHYL ESTER]
Body weight loss [31]: 0%
T/C [32]: 61%
Activity rating [33]: <0.7
Log kill [34]: 0.42

COc1ccc2ncc(Oc3ccc(OC(C)C(=O)O)cc3)nc2c1Cl (stereo not given)
T/C [35]: 76%
Body weight loss [36]: 11.1%
Log kill [37]: 0

CC(Oc1ccc(Oc2cnc3ccc(Cl)cc3n2)cc1)C(=O)N(C)C (stereo not given)
Body weight loss [38]: -3.8%
Log kill [39]: 2.2
T/C [40]: 16%

CC(Oc1ccc(Oc2cnc3ccc(Br)cc3n2)cc1)C(=O)O (stereo not given)
Body weight loss [41]: -7%
Body weight loss [42]: -12%
T/C [43]: 0%
T/C [44]: 0%
Activity rating [45]: 2.8
Activity rating [46]: >2.8
Cures [47]: 3
Cures [48]: 2
Log kill [49]: 2.1
Log kill [50]: 3
